In patent publication US8461339B2, “Pharmaceutical compounds” (Sentinel Oncology Limited, priority 2008, dated 2013):

What was measured:
Flt3 (h) = biological target: T1, Flt3 (h) (Homo sapiens, UniProt P36888); test: Kinase inhibition assay, Flt3 (h) (Millipore, 33P-ATP filter assay); assay type: biochemical
T1 construct: purchased Millipore
T1 sequence (P36888 27-993): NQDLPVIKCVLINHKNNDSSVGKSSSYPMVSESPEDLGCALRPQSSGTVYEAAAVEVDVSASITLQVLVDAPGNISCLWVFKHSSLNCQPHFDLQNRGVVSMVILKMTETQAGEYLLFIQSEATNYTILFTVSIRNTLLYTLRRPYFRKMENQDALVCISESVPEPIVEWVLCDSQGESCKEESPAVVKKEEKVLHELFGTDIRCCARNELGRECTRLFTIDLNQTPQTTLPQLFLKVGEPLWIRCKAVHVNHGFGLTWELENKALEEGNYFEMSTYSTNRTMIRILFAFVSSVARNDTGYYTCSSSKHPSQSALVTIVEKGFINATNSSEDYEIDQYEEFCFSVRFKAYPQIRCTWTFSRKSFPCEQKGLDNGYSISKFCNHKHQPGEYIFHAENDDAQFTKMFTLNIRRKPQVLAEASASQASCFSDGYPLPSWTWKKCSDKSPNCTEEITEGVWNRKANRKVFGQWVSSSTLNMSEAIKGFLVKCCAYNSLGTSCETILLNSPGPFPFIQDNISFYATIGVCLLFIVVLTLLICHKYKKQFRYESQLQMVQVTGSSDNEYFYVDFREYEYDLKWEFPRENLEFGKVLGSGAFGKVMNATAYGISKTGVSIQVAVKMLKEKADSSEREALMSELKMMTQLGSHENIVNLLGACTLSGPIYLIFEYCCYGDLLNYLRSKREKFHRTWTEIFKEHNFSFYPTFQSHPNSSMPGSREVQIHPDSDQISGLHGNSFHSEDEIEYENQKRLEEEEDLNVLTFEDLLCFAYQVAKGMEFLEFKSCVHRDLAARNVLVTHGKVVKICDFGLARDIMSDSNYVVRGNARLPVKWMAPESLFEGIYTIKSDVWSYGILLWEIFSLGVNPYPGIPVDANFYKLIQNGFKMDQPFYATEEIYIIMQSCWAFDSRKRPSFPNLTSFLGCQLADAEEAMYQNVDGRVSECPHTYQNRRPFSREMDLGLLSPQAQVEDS
Method: (§1) Compounds of the invention can be screened for activity against a range of protein kinases using the assays set out below. Kinase inhibition assays were carried out by Millipore, Dundee Technology Park, Dundee, UK.
(§2) In a final reaction volume of 25 μL, Flt3 (h) (5-10 mU) is incubated with 8 mM MOPS pH 7.0, 0.2 mM EDTA, 50 μM EAIYAAPFAKKK, 10 mM MgAcetate and [[…]-33P-ATP] (specific activity approx. 500 cpm/pmol, concentration as required). The reaction is initiated by the addition of the MgATP mix. After incubation for 40 minutes at room temperature, the reaction is stopped by the addition of 5 μL of a 3% phosphoric acid solution. 10 μL of the reaction is then spotted onto a P30 filtermat and washed three times for 5 minutes in 75 mM phosphoric acid and once in methanol prior to drying and scintillation counting.

Flt4 (h) = biological target: T2, Flt4 (h) (Homo sapiens, UniProt P35916); test: Kinase inhibition assay, Flt4 (h) (Millipore, 33P-ATP filter assay); assay type: biochemical
T2 construct: purchased Millipore
T2 sequence (P35916 25-1363): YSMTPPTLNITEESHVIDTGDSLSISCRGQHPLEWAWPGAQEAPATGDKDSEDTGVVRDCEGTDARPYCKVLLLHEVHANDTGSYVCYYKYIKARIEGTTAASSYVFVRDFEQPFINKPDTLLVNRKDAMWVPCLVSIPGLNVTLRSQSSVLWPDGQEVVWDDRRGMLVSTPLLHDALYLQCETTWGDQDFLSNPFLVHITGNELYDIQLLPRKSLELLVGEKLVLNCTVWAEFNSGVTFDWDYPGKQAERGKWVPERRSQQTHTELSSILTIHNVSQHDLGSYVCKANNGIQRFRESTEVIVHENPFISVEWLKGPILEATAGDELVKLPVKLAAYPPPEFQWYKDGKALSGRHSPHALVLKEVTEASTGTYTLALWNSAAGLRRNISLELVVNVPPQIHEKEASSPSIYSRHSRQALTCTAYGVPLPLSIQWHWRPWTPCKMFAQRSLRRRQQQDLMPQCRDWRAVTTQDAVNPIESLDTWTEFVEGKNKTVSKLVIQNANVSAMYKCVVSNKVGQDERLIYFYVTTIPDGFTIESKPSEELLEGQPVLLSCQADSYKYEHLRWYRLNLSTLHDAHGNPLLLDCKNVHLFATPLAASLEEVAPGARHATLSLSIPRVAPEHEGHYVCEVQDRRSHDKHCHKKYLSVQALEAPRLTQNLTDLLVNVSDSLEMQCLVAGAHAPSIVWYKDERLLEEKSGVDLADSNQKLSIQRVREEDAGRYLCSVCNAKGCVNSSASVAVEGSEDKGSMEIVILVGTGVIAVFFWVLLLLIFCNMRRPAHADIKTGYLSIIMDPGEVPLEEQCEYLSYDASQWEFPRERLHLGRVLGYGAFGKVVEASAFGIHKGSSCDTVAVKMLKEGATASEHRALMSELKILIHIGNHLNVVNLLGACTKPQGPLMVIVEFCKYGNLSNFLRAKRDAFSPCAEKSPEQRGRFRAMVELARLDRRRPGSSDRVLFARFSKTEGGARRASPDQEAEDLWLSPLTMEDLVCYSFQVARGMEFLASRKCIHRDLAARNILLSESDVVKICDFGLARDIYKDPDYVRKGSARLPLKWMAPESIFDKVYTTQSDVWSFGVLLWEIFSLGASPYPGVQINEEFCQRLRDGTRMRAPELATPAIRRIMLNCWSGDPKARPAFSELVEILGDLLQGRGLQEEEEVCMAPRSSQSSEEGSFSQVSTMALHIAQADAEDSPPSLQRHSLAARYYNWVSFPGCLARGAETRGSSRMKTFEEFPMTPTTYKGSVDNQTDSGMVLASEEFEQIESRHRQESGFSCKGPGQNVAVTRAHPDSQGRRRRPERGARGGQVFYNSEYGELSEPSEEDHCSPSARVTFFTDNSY
Method: as §1
as §2, with “μL, Flt4” for “μL, Flt3”, “EDTA, 500” for “EDTA, 50”, “μM GGEEEEYFELVKKKK,” for “μM EAIYAAPFAKKK,”

KDR (h) = biological target: T3, KDR (h) (Homo sapiens, UniProt P35968); test: Kinase inhibition assay, KDR (h) (Millipore, 33P-ATP filter assay); assay type: biochemical; settings: read-out: IC50 against KDR kinase
T3 construct: purchased Millipore
T3 sequence (P35968 20-1356): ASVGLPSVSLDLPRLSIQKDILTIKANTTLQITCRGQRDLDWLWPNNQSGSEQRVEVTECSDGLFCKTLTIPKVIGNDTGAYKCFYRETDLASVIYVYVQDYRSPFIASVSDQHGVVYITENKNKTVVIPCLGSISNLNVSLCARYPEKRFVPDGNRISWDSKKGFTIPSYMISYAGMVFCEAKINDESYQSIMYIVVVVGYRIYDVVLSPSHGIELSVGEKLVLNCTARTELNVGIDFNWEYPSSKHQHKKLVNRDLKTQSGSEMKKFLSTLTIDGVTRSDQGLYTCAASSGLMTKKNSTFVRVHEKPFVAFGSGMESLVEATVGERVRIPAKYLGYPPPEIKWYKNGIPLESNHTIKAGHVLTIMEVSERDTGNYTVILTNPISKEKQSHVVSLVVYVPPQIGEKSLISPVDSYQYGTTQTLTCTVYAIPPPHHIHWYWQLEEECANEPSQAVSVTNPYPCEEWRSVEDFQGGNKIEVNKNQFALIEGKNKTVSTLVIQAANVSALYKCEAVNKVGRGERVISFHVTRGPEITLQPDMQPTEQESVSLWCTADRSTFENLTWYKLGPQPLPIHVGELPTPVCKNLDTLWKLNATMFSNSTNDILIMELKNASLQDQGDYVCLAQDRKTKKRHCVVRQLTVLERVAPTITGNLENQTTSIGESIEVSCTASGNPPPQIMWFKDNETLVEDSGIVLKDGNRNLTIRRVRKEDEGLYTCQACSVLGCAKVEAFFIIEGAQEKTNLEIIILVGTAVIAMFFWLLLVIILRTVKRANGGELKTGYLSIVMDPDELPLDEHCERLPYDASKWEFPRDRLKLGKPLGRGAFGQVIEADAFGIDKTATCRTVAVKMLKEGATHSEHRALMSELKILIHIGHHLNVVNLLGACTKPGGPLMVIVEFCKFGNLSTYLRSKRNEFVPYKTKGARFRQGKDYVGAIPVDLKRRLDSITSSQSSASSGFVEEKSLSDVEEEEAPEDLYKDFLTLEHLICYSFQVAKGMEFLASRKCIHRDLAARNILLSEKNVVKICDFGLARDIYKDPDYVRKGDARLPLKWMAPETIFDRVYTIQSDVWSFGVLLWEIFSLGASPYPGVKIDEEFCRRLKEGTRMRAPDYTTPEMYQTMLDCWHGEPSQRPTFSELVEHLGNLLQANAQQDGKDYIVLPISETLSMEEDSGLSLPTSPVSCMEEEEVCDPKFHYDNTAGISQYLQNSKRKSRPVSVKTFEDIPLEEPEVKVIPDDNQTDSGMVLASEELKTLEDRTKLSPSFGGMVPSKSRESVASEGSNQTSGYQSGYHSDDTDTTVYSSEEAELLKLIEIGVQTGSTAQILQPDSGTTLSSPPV
Method: as §1
as §2, with “KDR” for “Flt3”, “0.33 mg/mL myelin basic protein,” for “50 μM EAIYAAPFAKKK,”, “Mg Acetate” for “MgAcetate”, “[γ-33P-ATP]” for “[[…]-33P-ATP]”

Yes (h) = biological target: T4, Yes (h) (Homo sapiens, UniProt P07947); test: Kinase inhibition assay, Yes (h) (Millipore, 33P-ATP filter assay); assay type: biochemical; settings: read-out: IC50 against Yes kinase
T4 construct: purchased Millipore
T4 sequence (P07947 whole entry): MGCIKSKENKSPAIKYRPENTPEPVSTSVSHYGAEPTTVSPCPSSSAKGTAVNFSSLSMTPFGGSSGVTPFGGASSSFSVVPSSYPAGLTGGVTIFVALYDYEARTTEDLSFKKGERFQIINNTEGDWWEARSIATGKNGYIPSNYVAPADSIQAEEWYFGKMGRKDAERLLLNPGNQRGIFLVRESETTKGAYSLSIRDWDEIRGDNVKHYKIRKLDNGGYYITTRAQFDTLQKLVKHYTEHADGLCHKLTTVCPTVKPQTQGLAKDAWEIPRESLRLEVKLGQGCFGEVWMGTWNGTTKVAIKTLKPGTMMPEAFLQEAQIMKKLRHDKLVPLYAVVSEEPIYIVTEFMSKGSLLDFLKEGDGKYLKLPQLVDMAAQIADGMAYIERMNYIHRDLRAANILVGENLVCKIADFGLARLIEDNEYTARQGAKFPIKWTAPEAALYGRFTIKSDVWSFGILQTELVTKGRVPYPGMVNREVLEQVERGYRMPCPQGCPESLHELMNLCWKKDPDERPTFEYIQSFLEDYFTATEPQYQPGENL
Method: as §1
as §2, with “μl, Yes” for “μL, Flt3”, “0.1 mg/ml poly(Glu, Tyr) 4:1,” for “50 μM EAIYAAPFAKKK,”, “[γ-33P-ATP]” for “[[…]-33P-ATP]”, “μl” for “μL”, “Filtermat A” for “P30 filtermat”

HCT116 cells = test: Anti-proliferative activity, Alamar Blue assay; assay type: cell-based; settings: Homo sapiens, HCT-116, 72 h incubation, read-out: cell proliferation IC50
Method: The anti-proliferative activities of compounds of the invention are determined by measuring the ability of the compounds to inhibition of cell growth in a number of cell lines. Inhibition of cell growth is measured using the Alamar Blue assay
The following protocol was used: • 1) HT29, HCT116 or Colo205 cells were seeded at an appropriate density and allowed to adhere overnight. • 2) Test compounds were prepared from 10 mM DMSO stocks to give a final concentration range as shown on the graphs. DMSO was constant throughout each experiment. • 3) Test compounds were incubated with the cells for 72 h at 37° C. 5% CO2 in a humidified atmosphere. • 4) Alamar blue 10% (v/v) was then added and incubated for a further 6 h, and fluorescent product detected using the BMG FLUOstar plate reader. • 5) Data was analysed using a 4-parameter logistic equation in Graph Pad Prism.

[1] = system: human HT29 colon carcinoma cells; test: HT29 colony forming assay; assay type: cell-based; settings: HT-29, 240 h, 10 days incubation, colonies counted
Method: The ability of compounds of the invention to prevent growth of discrete colonies of human HT29 colon carcinoma cells over a 10 day time course can be measured using the following protocol: • 1. HT29 cells (ECACC No. 91072201) are seeded in 24-well plates at a concentration of 75 cells per well and allowed to adhere overnight prior to addition of compound or vehicle control. • 2. Test compounds are prepared from 10 mM DMSO stocks to give a final concentration range of 10 μM, 3 μM, 1 μM, 0.3 μM, 0.1 μM, 0.03 μM, 0.01 μM and vehicle control. The DMSO content is constant at 0.1%. • 3. Test compounds are incubated with the cells for 10 days at 37° C. 5% CO2 in a humidified atmosphere. • 4. Colonies are fixed using Carnoy's Fixative (75% methanol, 25% acetic acid) for 5 minutes, and allowed to air dry. • 5. Colonies are stained using 0.4% (w/v) crystal violet for 2 minutes. • 6. Colonies (containing more than 50 cells) are counted by eye and data analysed using a 4-parameter logistic equation in GraphPad Prism.

Compound	IC50 (Flt3 (h)) [nM]	IC50 (Flt4 (h)) [nM]	IC50 (KDR (h)) [nM]	IC50 (Yes (h)) [nM]	IC50 (HCT116 cells) [nM]	IC50 [1] [nM]
c1ccc2cc(Nc3cc(CN4CCNCC4)ccn3)ncc2c1 [Example 21B, Isoquinolin-3-yl-(4-piperazin-1-ylmethyl-pyridin-2-yl)-amine]	< 5000	< 500				
NC(=O)N1CCN(Cc2ccnc(Nc3cc4ccccc4cn3)c2)CC1 [Example 21C, 4-[2-(Isoquinolin-3-ylamino)-pyridin-4-ylmethyl]-piperazine-1-carboxylic acid amide]	< 100	< 500				
CNC(=O)N1CCN(Cc2ccnc(Nc3cc4ccccc4cn3)c2)CC1 [Example 19, 4-[2-(Isoquinolin-3-ylamino)-pyridin-4-ylmethyl]-piperazine-1-carboxylic acid methylamide]	< 100	< 100				
Fc1ccc2cc(Nc3cc(CN4CCCC4)ccn3)ncc2c1 [Example 18, 7-Fluoroisoquinolin-3-yl-(4-pyrrolidin-1-ylmethyl-pyridin-2-yl)-amine]	< 100	< 100				
Clc1ccc2cc(Nc3cc(CN4CCCC4)ccn3)ncc2c1 [Example 14, 7-Chloroisoquinolin-3-yl-(4-pyrrolidin-1-ylmethyl-pyridin-2-yl)-amine]	< 100	> 100				
O=C(CO)N1CCN(Cc2ccnc(Nc3cc4ccccc4cn3)c2)CC1 [Example 23B, 2-Hydroxy-1-{4-[2-(isoquinolin-3-ylamino)-pyridin-4-ylmethyl]-piperazin-1-yl}-ethanone]	< 100	< 100				
CN(C)C(=O)N1CCN(Cc2ccnc(Nc3cc4ccccc4cn3)c2)CC1 [Example 20, 4-[2-(Isoquinolin-3-ylamino)-pyridin-4-ylmethyl]-piperazine-1-carboxylic acid dimethylamide]	< 100	< 100				
CC(=O)N1CCN(Cc2ccnc(Nc3cc4ccccc4cn3)c2)CC1 [Example 22, 1-[4-[2-(Isoquinolin-3-ylamino)-pyridin-4-ylmethyl]-piperazin-1-yl]-ethanone]	< 100	< 500				
c1ccc2cc(Nc3cc(CN4CCCC4)ccn3)ncc2c1 [Example 1, Isoquinolin-3-yl-(4-pyrrolidin-1-ylmethyl-pyridin-2-yl)-amine]	< 100	< 500	< 5000	< 5000	< 25000	1380
COc1ccc2cnc(Nc3cc(CN4CCCC4)ccn3)cc2c1 [Example 17, (6-Methoxy-isoquinolin-3-yl)-(4-pyrrolidin-1-ylmethyl-pyridin-2-yl)-amine]	< 100	< 100				
